Test results from publication PMC4841536, “Characterization of the Anti-HCV Activities of the New Cyclophilin Inhibitor STG-175” (PLoS ONE, 2016).
“And” between values parts separate entries of the source, which are not always exact repeats. Identical values can stand only once. Like-named read-outs stand apart in the source and are kept apart here.

Tests used:
[1] = test system: D320E/Y321N NS5A Con1 GT1b replicon; assay: microbe, parasite or virus in culture; format: cell-based, hepatitis C virus; details: for EC50: Hepatitis C virus, GT1B
Text: (§1) The GT1b subgenomic firefly luciferase reporter replicon pFK-I389/NS3–3 was provided by R. Bartenschlager. The GT1B subgenomic NS3, NS5A and NS5B mutants were created via homologous recombination using the In-Fusion HD Cloning kit (Clontech) as we described previously. […] The in vitro transcription of wild-type and mutant Con1 RNA was accomplished using the T7 MEGAscript kit (Ambion) by following the manufacturer’s instructions. In vitro-transcribed RNAs were introduced into Huh7.5.1 cells by electroporation. Trypsinized cells were washed twice and resuspended in phosphate-buffered saline (PBS) (calcium-free and magnesium-free) at 1x 10^7 cells per ml. Ten micrograms of RNA for each mutant was mixed with 0.4 mL of cells in a 4-mm cuvette, and a Bio-Rad Gene Pulser system was used to deliver a single pulse at 0.27 kV, 100 ohms, and 960 μF. Cells were then plated in 12-well dishes. RNA transfection efficiency and HCV subgenomic replication were assessed by reverse transcription-quantitative PCR (RT-qPCR) and presented as genome equivalents (GE) per microgram of total RNA as described previously. We measured by RT-qPCR the replication of wild-type, STG-175-, NS5Ai-, NS3i- and NS5Bi-resistant mutants in the presence of increasing concentrations of SGT-175, daclatasvir, telaprevir, boceprevir and sofosbuvir over a period of 8 days.
(§2) D320E and D320E/Y321N NS5A substitutions were introduced into wild-type Con1 GT1 replicon as we described previously. Con1-NS5A-D320E, and Con1-NS5A-D320E/Y321N were generated using the following forward and reverse phosphorylated (p) primer sets, respectively: (p)[…] and (p)[…], and (p)[…] and (p)[…]. PCR products were circularized with Quick T4 DNA ligase (NEB) for 5 min and transformed into NEB 10-beta competent cells. The NS5A gene was sequenced to confirm the introduced substitutions.
(§3) Fig 3 Replicon clearance, replication rebound and resistance analyses. […] Then drugs were removed to allow viral replication rebound to occur. At each passage, samples of cells were collected, RNA extracted and analyzed by RT-PCR for HCV RNA levels. B. Emergence of resistance: Con1 replicon Huh-7 cells were passaged 22 times in the absence or presence of STG-175 or selected DAAs. At each passage, sample of cells were collected, RNA extracted and analyzed by RT-PCR for HCV RNA levels. C. […] Data are expressed as number of HCV RNA copies per cell. […] Data are expressed as mean of relative light units and calculated EC50s are presented. […] E. Degree of resistance of D320E and Y321N Con1 variants: Left panel. Wild-type (WT), D320E and D320/Y321N NS5A Con1 RNA were electroporated into Huh7.5.1 cells and replication monitored over 8 days by quantifying the levels of intracellular HCV RNA. Right panel. Same as just above except that increasing concentrations of STG-175 were added at the time of the electroporation. […] STG-175 is taken as the substance from the printed x-axis title 'STG-175 in Log nM'.
(§4) To determine whether the D320E and Y321N substitutions truly render HCV resistant to STG-175, they were introduced into wild-type Con1 replicon as we described previously. Introduction of the substitutions was verified by sequencing.

[2] = test system: D320E NS5A Con1 GT1b replicon; assay: microbe, parasite or virus in culture; format: cell-based, hepatitis C virus; details: for EC50: Hepatitis C virus, GT1B
Text: as §1, §2, §3, §4

[3] = test system: IL-2 promoter activation in Jurkat T-cell line; assay: In vitro assay for immunosuppression: IL-2 promoter activation in engineered Jurkat T-cell line (betagalactosidase); format: cell-based
Protocol: IL-2 promoter activation upon T-cell stimulation was determined using an engineered Jurkat T-cell line, which expresses betagalactosidase when exposed to chemical non-specific factors like […] (PMA) and phytohematogglutinin (PHA) as described previously. DMSO or STG-175 were added together with PMA (10 ng/mL) to 1 million of Jurkat cells (triplicates). Betagalactosidase activity in cell lysates was quantified by fluorescence (460 nm) after 24 h.
Fig 1 Anti-PPIase and immunosuppressive activities of STG-175. A. Structures of cyclophilin inhibitors. Inhibition of CypA (B) and CypD (C) isomerase activities were assessed using the α-chymotrypsin-coupled assay. Each test compound was prepared at 10 concentrations (0.05–1000 nM). All solutions were equilibrated, and reactions conducted at 5°C. Reactions were initiated by mixing 95 μL reaction mix with 5 μL of the peptide to be cleaved and measuring OD405 nm at 6-sec intervals for 6 min. Data were fitted with Graphpad Prism 6.0 to obtain first-order rate constants. Enzyme catalyzed rate constants were calculated by subtracting the rate constant from uncatalyzed reactions (no CypA/D), and catalytic rate constants plotted as a function of inhibitor concentration to obtain IC50s. […] D. IL-2 promoter activation upon T-cell stimulation was determined using an engineered Jurkat T-cell line, which expresses betagalactosidase. Jurkat cells (1 million) were activated with PMA (10 ng/mL). […] The Y-axis values are expressed as percentage of activity. Data expressed as EC50s are representative of two independent experiments.
The formation of this trimolecular complex inhibits T cell proliferation by blocking the signaling pathway leading to IL-2 production upon T-cell stimulation. The immunosuppressive activity of STG-175 was evaluated by inhibition of the IL-2 production in Jurkat cells.

CC=CCC(C)C(O)C1C(=O)NC(CC)C(=O)N(C)C(CSCCCCO)C(=O)N(C)C(CC(C)(C)O)C(=O)NC(C(C)C)C(=O)N(C)C(CC(C)C)C(=O)NC(C)C(=O)NC(C)C(=O)N(C)C(CC(C)C)C(=O)N(C)C(CC(C)C)C(=O)N(C)C(C(C)C)C(=O)N1C (stereo not shown) [STG-175] gave an EC50 ([1]; Huh-7.5.1, 144 h, read-out: EC50, D320E/Y321N replicon) of 75 nM, an EC50 ([1]; Huh-7.5.1, 192 h, read-out: EC50, D320E/Y321N replicon) of 102 nM and an EC50 ([1]; Huh-7.5.1, 192 h, read-out: EC50 D320E/Y321N NS5A) of 77.9 nM. The “fold more resistant than wild-type replicon, D320E/Y321N” value ([1]; day 6) was 2.1 fold, the “fold more resistant than wild-type replicon, D320E/Y321N” value ([1]; day 8) was 2.9 fold and the “fold resistance conferred by NS5A D320E and Y321N substitutions (summary)” value ([1]; variants emerged under STG-175 pressure) was ~ 2 fold and 2-3 fold. For the same compound, the EC50 ([2]; Huh-7.5.1, 144 h, read-out: EC50, D320E replicon) was 61.6 nM, the EC50 ([2]; Huh-7.5.1, 192 h, read-out: EC50, D320E replicon) was 83.2 nM and the EC50 ([2]; Huh-7.5.1, 192 h, read-out: EC50 D320E NS5A) was 62.8 nM. For the same compound, the “fold more resistant than wild-type replicon, D320E” value ([2]; day 6) was 1.7 fold, the “fold more resistant than wild-type replicon, D320E” value ([2]; day 8) was 2.4 fold and the IC50 ([3]; Homo sapiens, Jurkat, 24 h, read-out: IC50, inhibition of IL-2 production (immunosuppressive activity)) was 159 nM. The “times less immunosuppressive activity than CsA” value ([3]; Jurkat IL-2) was “approximately 1000 times”.
